How the values were obtained:
[1] = Antimicrobial robustness testing of 4 mg/mL oral solution, higher sodium benzoate: USP and Pharm. Eur. requirements (Example 4); type: cell-based; conditions: 2.36 mg/mL sodium benzoate (corresponding to 2 mg/mL benzoic acid)
Experimental: Antimicrobial Robustness Testing of 4 mg/mL Tapentadol Oral Solution (Higher Concentration of Sodium Benzoate)
Based on the obtained results the test was repeated using a formulation containing a higher preservative concentration of 2.36 mg/mL instead of 1.77 mg/mL sodium benzoate.
The above study of example 3 was repeated using a formulation of 4 mg/mL tapentadol and 2.36 mg/mL sodium benzoate (corresponding to 2 mg/mL benzoic acid). The antimicrobial activity of the formulation was determined with 100% at target pH of 4 and with 80% of sodium benzoate at the pH limits of 3.5 and 4.5. The following compositions of the formulation were used for the antimicrobial robustness testing (Table 4).

Aspergillus niger = assay: Activity against Aspergillus niger at lower drug concentrations, pH 4.0 and 5.0 (Example 1); type: cell-based
Excerpt: Determination of Antimicrobial Effective Concentration of Tapentadol Hydrochloride
(§1) The activity against mold (Aspergillus niger) is lower but still within the limits of the requirements of the Pharm. Eur. The activity of tapentadol hydrochloride against Aspergillus niger has been evaluated at lower drug concentrations and at pH 4.0 and 5.0 in formulations containing citric acid as buffer system and hydrochloric acid and sodium hydroxide to adjust the pH.
The requirements of Pharm. Eur. for oral solutions (log reduction of 1 after 14 and no increase after 28 days concerning mold A. niger) are met at pH 4 for tapentadol concentrations of equal or above 8 mg/mL and at pH 5 for concentrations equal or above to 4 mg/m L.

[2] = Initial studies: antimicrobial activity of tapentadol hydrochloride; type: cell-based; conditions: 10 mg/mL free base
Excerpt: as §1

yeast = assay: Initial studies: activity against yeast; type: cell-based; conditions: 10 mg/mL free base
mold (Aspergillus niger) = assay: Initial studies: activity against mold; type: cell-based; conditions: 10 mg/mL free base
Excerpt: as §1

[3] = Antimicrobial robustness testing of 4 mg/mL oral solution, lower sodium benzoate: USP and Pharm. Eur. requirements (Example 3); type: cell-based; conditions: 4 mg/mL solution
Experimental: Antimicrobial Robustness Testing of 4 mg/mL Tapentadol Oral Solution (Lower Concentration of Sodium Benzoate)
The 4 mg/mL solution of tapentadol has also been subjected to an antimicrobial robustness testing. […] Therefore, sodium benzoate has been used as a preservative in the formulation. The antimicrobial activity of the formulation was determined with 100% at target pH of 4 and with 80% of sodium benzoate at the pH limits of 3.5 and 4.5. The following compositions of the formulation were used for the antimicrobial robustness testing (Table 3).

[4] = Chemical stability of 4 and 20 mg/mL oral solution (Example 7); type: physicochemical; conditions: 3 months storage
Experimental: Chemical Stability of 4 and 20 mg/mL Tapentadol Oral Solution
To investigate the chemical stability of tapentadol oral solutions in different concentrations (4 and 20 mg/mL), stability studies were performed over 3 months evaluating the following parameters appearance, assay of tapentadol, degradation, assay preservative (only for the 4 mg/mL formulation) and pH at 25° C./60% RH, 40° C./75% RH and 50° C. In addition, for the 4 mg/mL solution 2 weeks cycling studies (from −15° C. to 30° C. as well as from 5° C. to 40° C.) were performed.

Compound | antimicrobial efficacy for a 4 mg/mL tapentadol hydrochloride oral solution [1] | antimicrobial activity at pH 5 compared with pH 4 (Aspergillus niger; after 14 and 28 days) | concentration limit for antimicrobial effectiveness of tapentadol (Aspergillus niger; depending on the pH (4 to 5)) [mg/mL] | tapentadol concentration at which requirements of Pharm. Eur. for oral solutions concerning mold A. niger are met (Aspergillus niger; pH 5, log reduction of 1 after 14 and no increase after 28 days) [mg/mL] | antimicrobial activity [2] | activity against yeast (yeast) | activity against mold (Aspergillus niger) (mold (Aspergillus niger)) | antimicrobial effect of the drug substance [3] | stability of the API in solution [4]
O=C([O-])c1ccccc1.[Na+] [sodium benzoate] | sufficient | – | – | – | – | – | – | – | –
CC[C@@H](c1cccc(O)c1)[C@@H](C)CN(C)C.Cl [tapentadol hydrochloride, (1R,2R)-3-(3-dimethylamino-1-ethyl-2-methyl-propyl)-phenol hydrochloride] | – | better antimicrobial activity | 4 to 8 | ≥ 4 | high | high | lower but still within the limits of the requirements of the Pharm. Eur. | not sufficiently pronounced | good stability

Reference: patent US11547678B2, “Aqueous pharmaceutical formulation of tapentadol for oral administration” (GRÜNENTHAL GMBH, priority 2011, dated 2023)
